Reference: patent publication US7323494B2, “Compounds and methods” (SmithKline Beecham Corporation, priority 2002, dated 2008)

Key:
[1] = target: T1, LXRα ligand binding domain (Homo sapiens, UniProt Q13133); assay: Ligand Sensing Assay for LXRα agonist activity; format: biochemical; settings: 1 μM; over a background reading of 10000 fluorescence units
T1 construct: His tag; made in house
T1 sequence (Q13133 183-447): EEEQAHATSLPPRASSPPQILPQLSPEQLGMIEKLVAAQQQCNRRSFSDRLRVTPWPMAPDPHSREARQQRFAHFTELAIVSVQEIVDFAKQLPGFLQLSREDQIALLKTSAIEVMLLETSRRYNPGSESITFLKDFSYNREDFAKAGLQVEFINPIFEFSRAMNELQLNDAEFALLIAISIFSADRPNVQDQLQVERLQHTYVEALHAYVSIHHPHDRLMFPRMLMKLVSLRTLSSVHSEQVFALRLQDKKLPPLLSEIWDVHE
T1 sequence (Q15788 676-700 partner): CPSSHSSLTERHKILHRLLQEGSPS
Procedure: Test Method 2: Ligand Sensing Assay for LXRα Agonist Activity
The assay for LXRα was run according to the procedures of Test Method 1, above using his-tagged LXRα ligand binding domain (amino acids 183-447 of Genbank accession number U22662, with the 14th amino acid corrected to A from R). In this assay 1 μM 24(S),25-epoxycholesterol gave a reading of 20000 fluorescence units over a background reading of 10000 fluorescence units.

[2] = target: T2, human LXRβ ligand binding domain (Homo sapiens, UniProt P55055); assay: Ligand Sensing Assay (LiSA) for LXRβ agonist activity (SRC1 peptide recruitment); format: biochemical; settings: 1 μM; over a background reading of 10000 fluorescence units
T2 construct: made in house; host or cells: E. coli BL21 (DE3), pRSETa
T2 sequence (P55055 184-460 limits assumed): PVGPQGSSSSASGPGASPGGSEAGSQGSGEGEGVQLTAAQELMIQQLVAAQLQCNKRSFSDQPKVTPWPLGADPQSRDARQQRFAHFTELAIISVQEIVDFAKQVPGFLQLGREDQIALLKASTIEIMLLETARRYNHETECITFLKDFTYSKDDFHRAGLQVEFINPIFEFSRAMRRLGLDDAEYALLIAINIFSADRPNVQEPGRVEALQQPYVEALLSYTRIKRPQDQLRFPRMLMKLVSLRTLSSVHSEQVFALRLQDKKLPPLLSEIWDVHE
T2 sequence (Q15788 676-700 partner limits assumed): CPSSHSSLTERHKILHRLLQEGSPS
Source text: Test Method 1: Ligand Sensing Assay (LiSA) for LXRβ Agonist Activity
This assay measures the recruitment of a peptide derived from the coactivator protein, SRC1, to the agonist-bound LXR[…]. Peptides derived from other nuclear receptor cofactors may be similarly prepared and assayed.
To generate the human LXRβ ligand binding domain suitable for LISA, a modified polyhistidine tag (MKKGHHHHHHG) (SEQ ID No. 1) was fused in frame to the human LXRβ ligand binding domain (amino acids 185-461 of Genbank accession number U07132) and subcloned into the expression vector pRSETa (Invitrogen) under the control of an IPTG inducible T7 promoter. The human LXRβ ligand binding domain was expressed in E. coli strain BL21 (DE3). Ten-liter fermentation batches were grown in Rich PO4 media with 0.1 mg/mL Ampicillin at 25° C. for 12 hours, cooled to […] and held at that temperature for 36 hours to a density of OD600=14. […]
Typically 25-50 g of cell paste is resuspended in 250-500 mL TBS, pH 8.0 (25 mM Tris, 150 mM NaCl). […] After washing to baseline absorbance with equilibration buffer, the column is washed with approximately one column volume of TBS pH-8.0 containing 95 mM imidazole. […] After washing to baseline absorbance with the dilution buffer the protein is eluted with a gradient from 50-500 mM NaCl. […]

Structure (SMILES): C[C@H](CC[C@@H]1OC1(C)C)[C@H]1CC[C@H]2[C@@H]3CC=C4C[C@@H](O)CC[C@]4(C)[C@H]3CC[C@]12C [24(S),25-epoxycholesterol]
- reading (fluorescence units) [1]: 20000 fluorescence units
- reading (fluorescence units) [2]: 20000 fluorescence units
